Patent publication US20220089636A1, “TETRAZOLONE SUBSTITUTED STEROIDS AND USE THEREOF” (Beijing Xuanyi PharmaSciences Co., Ltd., priority 2019, published 2022)
Where two headings read alike, the source gives them in different places.

Key:
α1β2γ2 GABAA receptor = target: T1, α1β2γ2 GABAA receptor (Homo sapiens, UniProt P14867+P47870); test: Patch clamp electrophysiology assay of recombinant α1β2γ2 GABAA receptors (potentiation of 2 μM GABA-evoked Cl- current); format: cell-based; conditions: HEK293T cells stably transfected with α1β2γ2 GABAA; whole cell, 2 μM GABA, -80 mV
T1 construct: expressed in transfected cells
T1 sequence (P14867 28-456): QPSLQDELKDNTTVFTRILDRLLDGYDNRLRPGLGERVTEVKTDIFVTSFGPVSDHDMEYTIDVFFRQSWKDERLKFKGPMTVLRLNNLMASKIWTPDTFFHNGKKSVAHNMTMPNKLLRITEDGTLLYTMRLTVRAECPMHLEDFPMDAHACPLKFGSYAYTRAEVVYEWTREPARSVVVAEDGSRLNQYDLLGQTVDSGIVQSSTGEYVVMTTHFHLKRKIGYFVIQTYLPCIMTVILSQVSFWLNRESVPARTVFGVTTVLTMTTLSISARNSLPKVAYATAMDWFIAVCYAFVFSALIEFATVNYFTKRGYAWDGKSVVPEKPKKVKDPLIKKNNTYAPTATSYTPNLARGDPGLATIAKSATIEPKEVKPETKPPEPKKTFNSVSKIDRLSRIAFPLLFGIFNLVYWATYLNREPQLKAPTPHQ
T1 sequence (P47870 25-512 limits assumed): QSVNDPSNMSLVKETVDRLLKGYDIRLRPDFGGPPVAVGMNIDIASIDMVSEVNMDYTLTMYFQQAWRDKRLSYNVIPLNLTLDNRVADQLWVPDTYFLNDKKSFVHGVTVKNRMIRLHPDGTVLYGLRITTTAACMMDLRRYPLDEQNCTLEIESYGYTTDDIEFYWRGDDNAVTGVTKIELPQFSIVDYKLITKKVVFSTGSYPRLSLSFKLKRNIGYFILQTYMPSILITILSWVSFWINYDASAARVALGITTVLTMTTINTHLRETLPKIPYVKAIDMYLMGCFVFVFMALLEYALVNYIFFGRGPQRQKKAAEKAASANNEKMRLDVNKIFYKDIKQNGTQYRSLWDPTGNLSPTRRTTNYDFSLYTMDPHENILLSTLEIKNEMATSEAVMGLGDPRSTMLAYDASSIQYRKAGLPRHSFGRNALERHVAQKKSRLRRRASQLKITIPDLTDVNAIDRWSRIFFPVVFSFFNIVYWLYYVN
T1 sequence (P18507 40-475 partner): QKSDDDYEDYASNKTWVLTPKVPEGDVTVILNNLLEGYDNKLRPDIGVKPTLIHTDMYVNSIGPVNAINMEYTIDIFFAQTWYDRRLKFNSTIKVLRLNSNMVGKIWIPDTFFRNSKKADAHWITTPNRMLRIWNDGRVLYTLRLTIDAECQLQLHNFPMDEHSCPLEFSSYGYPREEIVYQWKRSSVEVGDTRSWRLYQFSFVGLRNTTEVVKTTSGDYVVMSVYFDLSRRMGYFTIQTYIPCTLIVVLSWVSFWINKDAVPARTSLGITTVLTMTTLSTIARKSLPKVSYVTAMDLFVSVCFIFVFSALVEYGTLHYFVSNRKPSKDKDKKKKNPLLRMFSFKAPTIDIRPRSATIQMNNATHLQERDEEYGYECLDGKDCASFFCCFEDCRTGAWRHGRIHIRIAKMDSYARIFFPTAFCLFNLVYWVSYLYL
Description: Cellular electrophysiology is used to measure the pharmacological properties of GABAA receptor modulators in heterologous cell systems. Each compound is tested for its ability to affect GABA mediated currents at a submaximal agonist dose (GABA EC20=2 μM). HEK293T cells are stably transfected with the α1β2γ2 subunits of the GABAA receptor. Flasks or dishes of HEK293 GABAA cells were maintained in the medium (DMEM, 11% (v/v) heat inactivated FBS, 100 or 200 μg/ml G418, 40 μg/ml Hygromycin B, 80 μg/ml Zeocin) and incubated at 37° C. in a humidified incubator with 5% CO2. 12 to 24 hours prior to electrophysiological recordings, the cells were plated on glass cover slips placed in culture dishes and maintained under the same incubation and media conditions. The number of cells being plated on the cover slip should reach a confluence rate at which majority of the cells are single.
For the electrophysiological recordings in the study the following external and internal solutions were used (Table 1):
HEKA EPC 10 USB patch clamp amplifier (from HEKA Elektronik, Germany) was used in the whole cell recording. A cover slip with plenty of single HEK293T-GABAA cells on the surface was removed and placed into a continuously perfused (approximately 1-2 ml/minute) recording chamber mounted on an inverted microscope. GABAA Cl^− current was recorded from single cell using standard whole cell recording techniques. 2 μM GABA was used to evoke GABAA Cl^− current (2 μM of GABA was the EC10-EC20 value of agonist GABA obtained internally on the stable GABAA cells used in this study). After achieving break-in (whole-cell) configuration, the cell was voltage clamped at a holding potential of −80 mV. Only stable cells meeting the recording parameters (membrane resistance Rm>500 MΩ, access resistance (Ra)<15 MΩ, leak current<100 pA in 90% of the recording time) were used. 2 μM GABA was applied to the cell to induce stable Cl^− current first as control for about 2 seconds, test compounds (i.e., compounds of formula (AI), (I), (AII), and (II), or any subgenera thereof) were followed to be applied to the cells for 3 min, then 2 μM GABA was applied to observe the potentiation effect on the GABAA Cl^− current. Different doses of test compound from low to high were applied to the same cell when the cell was stable. A cell was considered stable when current size evoked by 2 μM GABA applied to the cell from time to time was similar. To minimize the possible desensitation of GABAA Cl^− current, duration between applications of test articles was set to 180 seconds.
Test compounds were dissolved in DMSO to form stock solutions (10 mM). Test compounds were diluted to 0.003, 0.01, 0.03, 0.1, 0.3, 1, 3 and 10 μM in bath solution. AU concentrations of test articles were tested on each cell. Data were analyzed using software provided by HEKA, Microsoft Excel and Graphpad Prism (Table 2).

[1] = Mouse PK study (i.v. and p.o.); format: in vivo; conditions: plasma, male CD1 mice; for half-life: read-out: T1/2 (hr) i.v. (converted); for Vd: read-out: Vss; for bioavailability: 5 mg/kg p.o. vs 1 mg/kg i.v.
Description: Test compounds were dosed to male CD1 mice at 5 mg/kg by oral gavage (p.o.) or 1 mg/kg by intravenous injection (i.v.). Blood samples were taken at 0.083, 0.25, 0.5, 1.0, 3.0, 6.0 and 24 hours post i.v. dosing and at 0.25, 0.5, 1.0, 3.0, 6.0 and 24 hours post p.o. dosing. The plasma concentration of compounds were determined by HPLC.

PTZ-treated mice = test: Acute PTZ (pentylenetetrazol-induced seizure) assay; format: in vivo, Male CD-1 mice; conditions: 3 mg/kg oral gavage 60 min prior to PTZ 120 mg/kg s.c.; observed 30 min
Description: The anticonvulsant effect of test compounds were assessed in the pentylenetetazol-induced seizure assay in mice similar to methods described in Giardina & Gasior (2009) Curr Protoc Pharmacol., Chapter 5. Male CD-1 mice were housed in groups of five under controlled conditions (temperature of 22±2° C. and 12:12 light-dark cycle, lights on at 8:00 am) and water and food were available ad libitum. The mice were housed for 1 week prior to behavioral testing, at which time they weighed 25-35 g. Pentylenetetrazol (PTZ, Sigma) was dissolved in sterile 0.9% saline at a concentration of 12 mg/mL concentration for subcutaneous administration. Test compounds were formulated and administered via oral gavage at 60 minutes prior to PTZ injection. AU solutions were made fresh and were given in a volume of 10 ml/kg body weight.
Mice were acclimated to the test room for at least 30 min before compound administration. Mice were randomized into at least four test groups (vehicle and at least three doses of the test compound) with 10 mice per group. […] Following the drug pretreatment time, the mice were injected s.c. with PTZ (120 mg/kg). Immediately following the PTZ injection, mice were individually placed into observation chambers (25×15×15 cm) and a three-channel timer was started. Each mouse was continuously observed for 30 min and the following behaviors were recorded by observers blinded to the treatments: 1) latency to clonic convulsions that persist for 3 sec and followed by an absence of righting reflex 2) latency to tonic convulsions, characterized by the rigid extension of all four limbs that exceeded a 90 degree angle with the body 3) latency to death 4) number of clonic and tonic convulsions. Data are presented as mean±S.E.M and one-way analysis of variance with Dunnetfs or Bonferroni's post-hoc test was used to detect significant differences in latency and number between the vehicle and dose group, p values<0.05 were regarded as statistically significant.

[2] = iv, 1 mg/kg i.v., read-out: AUClast (hr*ng/mL) i.v.
[3] = po, 5 mg/kg p.o., read-out: AUClast (hr*ng/mL) p.o.

Row | Compound | EC50 (α1β2γ2 GABAA receptor) | clearance ([1]; iv, 1 mg/kg i.v.) | AUC(0-t) [1, 2] | half-life ([1]; iv, 1 mg/kg i.v.) | Vd ([1]; iv, 1 mg/kg i.v.) | Cmax ([1]; po, 5 mg/kg p.o.) | Tmax ([1]; po, 5 mg/kg p.o.) | bioavailability ([1]; po) | AUC(0-t) [1, 3] | Clonic Seizure Latency (sec) (Mean) (PTZ-treated mice) | Clonic Seizure Number (Mean) (PTZ-treated mice) | Mortality (%) (PTZ-treated mice) | Onset of death (sec) (Mean) (PTZ-treated mice) | Tonic Seizure Latency (sec) (Mean) (PTZ-treated mice) | Tonic Seizure Number (Mean) (PTZ-treated mice)
1 | Cn1nnn(CC(=O)[C@H]2CC[C@H]3[C@@H]4CC[C@@H]5C[C@](C)(O)CC[C@@H]5[C@H]4CC[C@]23C)c1=O [Example 2, 1-(2-((3R,5R,8R,9R,10S,13S,14S,17S)-3-hydroxy-3,13-dimethylhexadecahydro-1H-cyclopenta[a]phenanthren-17-yl)-2-oxoethyl)-4-methyl-1,4-dihydro-5H-tetrazol-5-one] | 0.11 µM | 10.7 mL/min/kg | 1480 ng·h/mL | 1.46 h | 1.16 L/kg | 1380 ng/mL | 1 h | 66.3% | 4900 ng·h/mL | 1085.4 ± 184.6 s | 0.7 ± 0.2 | 0.0% | 1800 + 0.0 sec | 1800 + 0.0 sec | 0.0 + 0.0
2 | C[C@@]1(O)CC[C@H]2[C@H](CC[C@@H]3[C@@H]2CC[C@]2(C)[C@@H](C(=O)Cn4nnn(-c5cn[nH]c5)c4=O)CC[C@@H]32)C1 [Example 28, 1-(2-((3R,5R,8R,9R,10S,13S,14S,17S)-3-hydroxy-3,13-dimethylhexadecahydro-1H-cyclopenta[a]phenanthren-17-yl)-2-oxoethyl)-4-(1H-pyrazol-4-yl)-1,4-dihydro-5H-tetrazol-5-one] | 0.14 µM | 7.17 mL/min/kg | 2180 ng·h/mL | 6.12 h | 2.9 L/kg | 563 ng/mL | 6 h | 77.3% | 8420 ng·h/mL | 573.1 ± 124.9 s | 1.7 ± 0.3 | 40% | 1594.7 ± 107.0 s | 1586.3 ± 109.8 s | 0.4 ± 0.2
3 | C[C@@]1(O)CC[C@H]2[C@H](CC[C@@H]3[C@@H]2CC[C@]2(C)[C@@H](C(=O)Cn4nnn(-c5ccncc5)c4=O)CC[C@@H]32)C1 [Example 17, 1-(2-((3R,5R,8R,9R,10S,13S,14S,17S)-3-hydroxy-3,13-dimethylhexadecahydro-1H-cyclopenta[a]phenanthren-17-yl)-2-oxoethyl)-4-(pyridin-4-yl)-1,4-dihydro-5H-tetrazol-5-one] | 0.038 µM | 43.5 mL/min/kg | 381 ng·h/mL | 0.84 h | 2.12 L/kg | 227 ng/mL | 3 h | 101% | 1930 ng·h/mL | 1441 + 184.6 sec | 0.3 ± 0.2 | 0.0% | 1800 + 0.0 sec | 1800 + 0.0 sec | 0.0 + 0.0
4 | C[C@@]1(O)CC[C@H]2[C@H](CC[C@@H]3[C@@H]2CC[C@]2(C)[C@@H](C(=O)Cn4nnn(-c5ccc(C#N)cc5)c4=O)CC[C@@H]32)C1 [Example 13, 4-(4-(2-((3R,5R,8R,9R,10S,13S,14S,17S)-3-hydroxy-3,13-dimethylhexadecahydro-1H-cyclopenta[a]phenanthren-17-yl)-2-oxoethyl)-5-oxo-4,5-dihydro-1H-tetrazol-1-yl)benzonitrile] | 0.013 µM | 5.67 mL/min/kg | 2640 ng·h/mL | 8.03 h | 2.94 L/kg | 479 ng/mL | 1 h | 41.5% | 5760 ng·h/mL | 1012 + 263.6 sec | 0.7 ± 0.3 | 0.0% | 1800 + 0.0 sec | 1800 + 0.0 sec | 0.0 + 0.0
